# Assays:
# [1] = tested on: Adult male Sprague-Dawley rats; test: Extinction of conditioned fear measured by fear-potentiated startle (FPS) after extinction training; type: in vivo, rat; conditions: for fear potentiated startle (FPS) after extinction training: 10 mg/kg AM404, 5 mg/kg rimonabant, alone or together, 30 trial extinction, 24 hrs post extinction training; for fear (FPS) vs vehicle: 10 mg/kg i.p., 30-trial extinction; for extinction of fear (summary of Examples 1-10): systemic application in rats, fear-potentiated startle; for conditioned fear following extinction training vs vehicle: p<0.01
# Protocol: Animals: Adult male Sprague-Dawley rats (Charles River, Raleigh, N.C., 350-450 g) were used in the present studies. Animals were housed in pairs in a temperature-controlled animal colony, with ad libitum access to food and water, and maintained on a 12 hr light/dark cycle.
# (§1) Fear conditioning: All training and testing trials were performed in standardized chambers optimized for the measurement of fear-potentiated startle (see Walker et al. (2002) J. Neurosci. 22: 2343-2351). Animals were pre-exposed to the chambers for 10 min on each of 2 days prior to training for habituation purposes and to minimize the effects of contextual conditioning. On 2 consecutive days following habituation, rats were returned to the same chambers and presented with 10 pairings of a light (3.7 sec) co-terminating with a 0.4-mA, 0.5-sec shock (3.6-min inter-trial interval).
# (§2) Matching: Twenty-four hours following the last fear-conditioning session, animals were returned to the same chambers and presented with startle stimuli (50-msec, 95-dB white-noise bursts) in the presence or absence of the light conditioned stimulus (light-CS). Increased startle in the presence of the light-CS was taken as a measure of conditioned fear, and the magnitude of the fear response was calculated as the percentage by which startle increased when the light-CS was presented in compound with the startle stimulus versus when it was omitted (fear-potentiated startle or FPS). Using these measurements, animals were divided into groups displaying approximately equal levels of FPS prior to drug treatment and extinction training.
# Extinction training: Five days following the last fear conditioning trial, animals were injected intraperitoneally with a test compound or its vehicle in 1 mL/kg volumes and then immediately returned to the same chambers and presented with 15, 30 or 90 presentations of the light-CS in the absence of footshock (3.7-sec light, 30-sec inter-trial interval). One hour following extinction training, a subset of animals was given a short test consisting of startle stimuli in the presence or absence of the light-CS (2-5 light-startle compounds, values shown are averages of all trials). Twenty-four hrs post-extinction training, all animals were tested for the presence of fear-potentiated startle (15 light-startle compounds).
# Statistics: Comparisons were made across drug-treatment groups at each test (e.g. 24-hr groups were compared across treatment groups) using ANOVA or Student's t-test with drug or dose as the independent measure, and using Fischer's LSD test for post-hoc analysis.
# [2] = tested on: Adult male Sprague-Dawley rats; test: FPS in fear-conditioned animals without cue re-exposure; type: in vivo, rat; conditions: 10 mg/kg AM404 or 5 mg/kg rimonabant; tested 1 hr following drug administration
# Protocol: as §1
# as §2, with “training. […]” for “training.”
# [3] = tested on: Adult male Sprague-Dawley rats; test: Shock reactivity, baseline startle and activity measures; type: in vivo, rat; conditions: 10 mg/kg
# Protocol: Shock Reactivity, Startle, and Activity Measures: Animals that had been previously fear-conditioned were injected with AM404, placed in the training/testing chambers, and presented with 3 unpaired shocks and 42 startle stimuli (0.4-mA, 0.5-sec shocks, 95-dB noise-burst startle). The same group of animals was returned to the same chambers 3 d later, injected with vehicle, and presented with an identical behavioral test. The values shown are the mean integrated voltages of the accelerometers measured over 200-msec periods beginning at the onset of either the shocks or the startle stimuli. Additionally, a measure of spontaneous motor activity was derived from the mean displacement of the accelerometers in the 2 min prior to delivery of the first shock, while animals were exploring the chambers.
# This experiment examined behavioral effects engendered by AM404 treatment. These included the effect of 10 mg/kg AM404 on: 1) shock-reactivity as a measure of pain sensitivity; 2) baseline startle as one measure of anxiety; and 3) general motor activity within the training chambers. Animals were fear-conditioned and then returned to the training chamber several days later and administered 10 mg/kg AM404. Following drug administration, animals were presented with 3 shocks and 42 startle stimuli identical to those used in the above studies. Subsequently, the same animals were returned to the testing chamber 3 days later, injected with vehicle, and similarly tested.
# [4] = tested on: Adult male Sprague-Dawley rats; test: Shock-induced reinstatement of fear; type: in vivo, rat
# Protocol: Reinstatement: Animals that had been previously fear-conditioned and extinction-trained were returned to the testing chamber 48 hours and sometimes 96 hours following extinction training and presented with 3 footshocks in the absence of the light-CS (0.4 mA, 0.5 sec shock, 2 min inter-trial interval). Immediately following the unpaired shocks, animals were tested for the presence of fear-potentiated startle (15 light-startle compounds).
# Shock-induced reinstatement was examined 2 days following treatment with AM404 or vehicle during extinction. Previous studies have shown that the level of fear following reinstatement is dependent both on the level of the stressor and the amount of previous extinction, as long as the stressor is delivered in the same context as the original training context (Rescorla & Heth (1975). J. Exp. Psychol. Anim. Behav. Process. 1(1): 88-96; Bouton & King (1983) J. Exp. Psychol. Anim. Behav. Process. 9: 248-265). As animals were matched for equivalent FPS prior to extinction training, the susceptibility of animals to reinstatement can be taken as a secondary measure of the strength of extinction training, and perhaps as a preliminary measure of the resiliency of these inhibitory extinction memories to stressors. […]
# [5] = PD98059 systemic and intra-amygdala infusions; AP5 intra-amygdala infusions; cited from earlier work
# [6] = intra-amygdala infusions; fear-potentiated startle (AP5 also freezing); cited from earlier work
# [7] = cited from earlier work
# [8] = doses greater than 5 mg/kg; Herzberg et al. 1997; cited from earlier work
smiles,measurement,setting,value
"CCCCC/C=C\C/C=C\C/C=C\C/C=C\CCCC(=O)Nc1ccc(O)cc1 [AM404, N-(4-hydroxyphenyl)arachidonamide]",fear potentiated startle (FPS) after extinction training,[1],significant extinction
same,fear (FPS) vs vehicle,"[1]; 1 hr post extinction, p<0.05",significantly less fear than vehicle-treated controls
same,fear (FPS) vs vehicle,"[1]; 24 hrs post-extinction, post-hoc p<0.05",significantly less than vehicle-treated animals
same,extinction retention (fear in the presence of the CS),"[1]; prior to 30-trial extinction training, 24 hrs following extinction training, main effect of drug p<0.05",enhancement of extinction retention
same,extinction of fear (summary of Examples 1-10),[1],dose-dependently enhances extinction of fear
same,FPS when cue re-exposure omitted,[2],no effect on FPS
same,shock reactivity (pain sensitivity),"[3]; 3 footshocks, p>0.5",little effect
same,baseline startle (anxiety),[3]; p=0.45,non-significant trend toward decreased baseline startle
same,overall locomotor activity levels in the testing chamber,[3]; p>0.5,little effect
same,reinstatement-induced conditioned fear,"[4]; 2 mg/kg and 10 mg/kg groups pooled, drug given prior to extinction training, 48 hrs prior to reinstatement with 3 footshocks, p<0.05",less reinstatement-induced conditioned fear
same,within-session extinction (change in FPS) after reinstatement,"[4]; first 4 trials of testing following reinstatement, Trial X Drug p<0.02",little change
NC(CCCP(=O)(O)O)C(=O)O (stereo not shown) [AP5],fear conditioning,[5],block fear conditioning
same,extinction,[6],block extinction
"N[C@@H]1CONC1=O [DCS, D-cycloserine]",half-life,[7]; in vivo,10 h
same,route of excretion,[7]; in vivo,primarily renally excreted
same,time of peak blood levels after dosing,[7]; in vivo,3 to 8 h
same,side effects,"[7]; infrequent, subjects on chronic dosing schedules, generally chronically ill with tuberculosis","drowsiness, headache, confusion, tremor, vertigo, and memory difficulties, paresthesias, and seizure"
COc1cccc(-c2cc(=O)c3ccccc3o2)c1N [PD98059],fear conditioning,[5],disrupt fear-conditioning
same,extinction,[6],disrupt extinction
"NC(=O)c1cccc(-c2cccc(OC(=O)NC3CCCCC3)c2)c1 [URB597, cyclohexylcarbamic acid 3′-carbamoylbiphenyl-3-yl ester]",reduction in fear within the testing session,"[1]; 15-trial extinction, relative to animals receiving no drug",greater reductions in fear within the testing session
same,average decrease in FPS relative to pre-extinction levels,"[1]; 15-trial extinction, testing sessions 48 and 96 hours after extinction training",approximately 30%
same,extinction retention (fear in the presence of the CS),"[1]; prior to 15-trial extinction training, 48 hrs following extinction training",enhancement of extinction retention
same,extinction of fear (summary of Examples 1-10),[1],dose-dependently enhances extinction of fear
"Cc1c(C(=O)c2cccc3ccccc23)c2cccc3c2n1[C@H](CN1CCOCC1)CO3 [WIN 55-212,2]",extinction retention (reduction in fear),[1]; 5 mg/kg single dose prior to 30-trial extinction training,did not augment the non-significant reduction in fear
same,locomotor and analgesic effects,[8],prominent locomotor and analgesic effects
Cc1c(C(=O)NN2CCCCC2)nn(-c2ccc(Cl)cc2Cl)c1-c1ccc(Cl)cc1 [rimonabant],conditioned fear following extinction training vs vehicle,"[1]; 1.5 mg/kg i.p., 90-trial extinction, 24 hrs post-extinction",significantly higher levels of conditioned fear than vehicle-treated controls
same,conditioned fear following extinction training vs vehicle,"[1]; 5 mg/kg i.p., 90-trial extinction, 24 hrs post-extinction",significantly higher levels of conditioned fear than vehicle-treated controls
same,fear potentiated startle (FPS) after extinction training,[1],no decrease in fear potentiated startle
same,extinction retention (fear in the presence of the light-CS),"[1]; 90-trial extinction, acute administration immediately prior to extinction training, tested 24 hrs following extinction training",profound disruption of extinction retention
same,extinction of fear (summary of Examples 1-10),[1],dose-dependently blocks extinction of fear
same,FPS when cue re-exposure omitted,[2],no effect on FPS

# From US20060084659A1, “Augmentation of psychotherapy with cannabinoid reuptake inhibitors” (priority 2004, published 2006)
